# From patent US20260015315A1, “AMINO LIPID COMPOUND, PREPARATION METHOD THEREFOR, COMPOSITION THEREOF AND APPLICATION THEREOF” (SHENZHEN SHENXIN BIOTECHNOLOGY CO., LTD., priority 2022, published 2026)
# Tested on: BALB/c mice
# Experiment: In vivo delivery of lipid nanoparticle encapsulating luciferase mRNA (Fluc mRNA), IVIS imaging
# Details: Fluc mRNA-LNP (amino lipid:DSPC:CHO-HP:PEG2000-DMG 48:10:40.5:1.5), 75 μL tail vein IV, female BALB/c mice, IVIS 6 hours after injection, whole body
# Experimental: The amino lipid compound of the present disclosure, a helper lipid, a structural lipid, and a PEG-lipid were separately dissolved in absolute ethanol to prepare respective solutions at concentrations of 20 mg/mL, 10 mg/mL, 20 mg/mL, and 25 mg/mL, respectively. The above four solutions were pipetted at a molar ratio of the amino lipid compound: DSPC:CHO-HP:PEG2000-DMG of 48:10:40.5:1.5, and mixed well to prepare an alcohol phase.
# (2) Encapsulation: The water phase and the alcohol phase were injected into a microfluidic chip at a flow rate of water phase:alcohol phase=12 mL/min: 4 mL/min by using a microfluidic preparation instrument (MPE-L2), and encapsulation was carried out at a flow rate of water phase:alcohol phase=9 mL/min: 3 mL/min to obtain mRNA-encapsulating lipid nanoparticle (mRNA-LNP).
# (3) Dialysis: The product of step (2) was loaded in a dialysis bag and placed in a Tris Buffer-8% sucrose solution for replacement to remove ingredients such as residual ethanol, unassembled lipids. Dialysis was conducted for 2 h with magnetic stirring at room temperature and under protection from light (dialysate was replaced every 1 hour).
# (4) The product of step (3) was sterilized by passing through a 0.22 μm microporous membrane, and then packaged.
# Lipid nanoparticle formulations encapsulating Flue mRNA were prepared, with a concentration of Flue mRNA of 0.2 μg/μL, a mass ratio of Flue mRNA to Lipid of 1:10, a particle size of 80-130 nm, and a encapsulation efficiency of 80% or higher.
# • Animal preparation: Female BALB/c mice of 6-8 weeks old were selected and raised in an SPF grade breeding room. Animal testing was conducted in strict accordance with the guidelines of national health institutions and animal ethics requirements.
# In vivo Delivery: prior to injection of the test LNP formulations, the LNP formulations were gently and repeatedly inverted to thoroughly mix the formulation samples. A corresponding amount of the formulation samples were aspirated with a 1 ml insulin syringe, and the LNP formulations were injected by tail vein injection (IV), with 3 mice in duplicate per formulation. Each mouse was injected with 75 μL of the luciferase mRNA (Flue mRNA)-encapsulating lipid nanoparticle formulation prepared in Experimental Example 1.
# 6 hours after injection of LNP formulations, mice were injected with 200 μL D-Luciferin luciferase developing substrate (Catalog No. 122799; Manufacturer: Perkin Elmer). After the substrate was injected, the mice were anesthetized by injection of 200 μl of 2.5% avertin, and the injection time of luciferase developing substrate was recorded.
# The fluorescence expression intensity induced by the lipid nanoparticle encapsulating luciferase mRNA (Flue mRNA) with a representative amino lipid compound is shown in Table 4, with the amino lipid compound 118 as a control.
row,Structure (SMILES),Total flux (fluorescence expression intensity)
1,CCCCCCC(CCCCCC)OC(=O)CCCCCCCCC(CCCCCCCCC(=O)OC(CCCCCC)CCCCCC)N(CCCN(C)C)C(=O)CCCOCCCC [compound 129],3.53E+07
2,CCCCCCCOCCCC(=O)N(CCCN(C)C)C(CCCCCCCCC(=O)OC(CCCCCC)CCCCCC)CCCCCCCCC(=O)OC(CCCCCC)CCCCCC [compound 132],2.70E+07
3,CCCCCCC(CCCCCC)OC(=O)CCCCCCCCC(CCCCCCCCC(=O)OC(CCCCCC)CCCCCC)N(CCN(C)C)C(=O)COCCCCC [compound 145],1.21E+07
4,CCCCCCOCC(=O)N(CCN(C)C)C(CCCCCCCCC(=O)OC(CCCCCC)CCCCCC)CCCCCCCCC(=O)OC(CCCCCC)CCCCCC [compound 146],1.37E+07
5,CCCCCCCOCC(=O)N(CCN(C)C)C(CCCCCCCCC(=O)OC(CCCCCC)CCCCCC)CCCCCCCCC(=O)OC(CCCCCC)CCCCCC [compound 147],4.97E+06
6,CCCCCCCCOCC(=O)N(CCN(C)C)C(CCCCCCCCC(=O)OC(CCCCCC)CCCCCC)CCCCCCCCC(=O)OC(CCCCCC)CCCCCC [compound 148],4.45E+06
7,CCCCCCC(CCCCCC)OC(=O)CCCCCCCCC(CCCCCCCCC(=O)OC(CCCCCC)CCCCCC)N(CCN(C)C)C(=O)CCOCCCC [compound 149],5.80E+06
8,CCCCCCC(CCCCCC)OC(=O)CCCCCCCCC(CCCCCCCCC(=O)OC(CCCCCC)CCCCCC)N(CCN(C)C)C(=O)CCOCCCCC [compound 150],2.06E+07
9,CCCCCCOCCC(=O)N(CCN(C)C)C(CCCCCCCCC(=O)OC(CCCCCC)CCCCCC)CCCCCCCCC(=O)OC(CCCCCC)CCCCCC [compound 151],2.29E+07
10,CCCCCCOCCCC(=O)N(CCN(C)C)C(CCCCCCCCC(=O)OC(CCCCCC)CCCCCC)CCCCCCCCC(=O)OC(CCCCCC)CCCCCC [compound 156],3.07E+07
11,CCCCCCCOCCCC(=O)N(CCN(C)C)C(CCCCCCCCC(=O)OC(CCCCCC)CCCCCC)CCCCCCCCC(=O)OC(CCCCCC)CCCCCC [compound 157],2.80E+07

# Same assay, conditions: Fluc mRNA-LNP, 75 μL tail vein IV, female BALB/c mice, IVIS 6 hours after injection, liver
row,Structure (SMILES),Liver (fluorescence expression intensity)
1,CCCCCCC(CCCCCC)OC(=O)CCCCCCCCC(CCCCCCCCC(=O)OC(CCCCCC)CCCCCC)N(CCN(C)C)C(=O)CCOCCCCC [compound 150],5.51E+06
2,CCCCCCOCCC(=O)N(CCN(C)C)C(CCCCCCCCC(=O)OC(CCCCCC)CCCCCC)CCCCCCCCC(=O)OC(CCCCCC)CCCCCC [compound 151],8.91E+06
3,CCCCCCOCCCC(=O)N(CCN(C)C)C(CCCCCCCCC(=O)OC(CCCCCC)CCCCCC)CCCCCCCCC(=O)OC(CCCCCC)CCCCCC [compound 156],9.75E+06
4,CCCCCCCOCCCC(=O)N(CCN(C)C)C(CCCCCCCCC(=O)OC(CCCCCC)CCCCCC)CCCCCCCCC(=O)OC(CCCCCC)CCCCCC [compound 157],1.07E+07

# Same assay, conditions: Fluc mRNA-LNP, 75 μL tail vein IV, female BALB/c mice, IVIS 6 hours after injection, spleen
row,Structure (SMILES),Spleen (fluorescence expression intensity)
1,CCCCCCC(CCCCCC)OC(=O)CCCCCCCCC(CCCCCCCCC(=O)OC(CCCCCC)CCCCCC)N(CCCN(C)C)C(=O)CCCOCCCC [compound 129],1.33E+07
2,CCCCCCCOCCCC(=O)N(CCCN(C)C)C(CCCCCCCCC(=O)OC(CCCCCC)CCCCCC)CCCCCCCCC(=O)OC(CCCCCC)CCCCCC [compound 132],6.10E+06
3,CCCCCCC(CCCCCC)OC(=O)CCCCCCCCC(CCCCCCCCC(=O)OC(CCCCCC)CCCCCC)N(CCN(C)C)C(=O)COCCCCC [compound 145],1.04E+05
4,CCCCCCOCC(=O)N(CCN(C)C)C(CCCCCCCCC(=O)OC(CCCCCC)CCCCCC)CCCCCCCCC(=O)OC(CCCCCC)CCCCCC [compound 146],6.65E+04
5,CCCCCCCOCC(=O)N(CCN(C)C)C(CCCCCCCCC(=O)OC(CCCCCC)CCCCCC)CCCCCCCCC(=O)OC(CCCCCC)CCCCCC [compound 147],1.13E+05
6,CCCCCCCCOCC(=O)N(CCN(C)C)C(CCCCCCCCC(=O)OC(CCCCCC)CCCCCC)CCCCCCCCC(=O)OC(CCCCCC)CCCCCC [compound 148],1.07E+05
7,CCCCCCC(CCCCCC)OC(=O)CCCCCCCCC(CCCCCCCCC(=O)OC(CCCCCC)CCCCCC)N(CCN(C)C)C(=O)CCOCCCC [compound 149],1.29E+05
8,CCCCCCC(CCCCCC)OC(=O)CCCCCCCCC(CCCCCCCCC(=O)OC(CCCCCC)CCCCCC)N(CCN(C)C)C(=O)CCOCCCCC [compound 150],2.27E+05
9,CCCCCCOCCC(=O)N(CCN(C)C)C(CCCCCCCCC(=O)OC(CCCCCC)CCCCCC)CCCCCCCCC(=O)OC(CCCCCC)CCCCCC [compound 151],1.30E+05
10,CCCCCCOCCCC(=O)N(CCN(C)C)C(CCCCCCCCC(=O)OC(CCCCCC)CCCCCC)CCCCCCCCC(=O)OC(CCCCCC)CCCCCC [compound 156],2.34E+05
11,CCCCCCCOCCCC(=O)N(CCN(C)C)C(CCCCCCCCC(=O)OC(CCCCCC)CCCCCC)CCCCCCCCC(=O)OC(CCCCCC)CCCCCC [compound 157],2.26E+05

# Same assay, conditions: Fluc mRNA-LNP, tail vein IV, BALB/c mice, 6 hours
row,Structure (SMILES),(Spleen/Total Flux) * 100%
1,CCCCCCC(CCCCCC)OC(=O)CCCCCCCCC(CCCCCCCCC(=O)OC(CCCCCC)CCCCCC)N(CCCN(C)C)C(=O)CCCOCCCC [compound 129],37.68%
2,CCCCCCCOCCCC(=O)N(CCCN(C)C)C(CCCCCCCCC(=O)OC(CCCCCC)CCCCCC)CCCCCCCCC(=O)OC(CCCCCC)CCCCCC [compound 132],22.59%
3,CCCCCCC(CCCCCC)OC(=O)CCCCCCCCC(CCCCCCCCC(=O)OC(CCCCCC)CCCCCC)N(CCN(C)C)C(=O)COCCCCC [compound 145],0.86%
4,CCCCCCOCC(=O)N(CCN(C)C)C(CCCCCCCCC(=O)OC(CCCCCC)CCCCCC)CCCCCCCCC(=O)OC(CCCCCC)CCCCCC [compound 146],0.49%
5,CCCCCCCOCC(=O)N(CCN(C)C)C(CCCCCCCCC(=O)OC(CCCCCC)CCCCCC)CCCCCCCCC(=O)OC(CCCCCC)CCCCCC [compound 147],2.27%
6,CCCCCCCCOCC(=O)N(CCN(C)C)C(CCCCCCCCC(=O)OC(CCCCCC)CCCCCC)CCCCCCCCC(=O)OC(CCCCCC)CCCCCC [compound 148],2.40%
7,CCCCCCC(CCCCCC)OC(=O)CCCCCCCCC(CCCCCCCCC(=O)OC(CCCCCC)CCCCCC)N(CCN(C)C)C(=O)CCOCCCC [compound 149],2.22%
8,CCCCCCC(CCCCCC)OC(=O)CCCCCCCCC(CCCCCCCCC(=O)OC(CCCCCC)CCCCCC)N(CCN(C)C)C(=O)CCOCCCCC [compound 150],1.10%
9,CCCCCCOCCC(=O)N(CCN(C)C)C(CCCCCCCCC(=O)OC(CCCCCC)CCCCCC)CCCCCCCCC(=O)OC(CCCCCC)CCCCCC [compound 151],0.57%
10,CCCCCCOCCCC(=O)N(CCN(C)C)C(CCCCCCCCC(=O)OC(CCCCCC)CCCCCC)CCCCCCCCC(=O)OC(CCCCCC)CCCCCC [compound 156],0.76%
11,CCCCCCCOCCCC(=O)N(CCN(C)C)C(CCCCCCCCC(=O)OC(CCCCCC)CCCCCC)CCCCCCCCC(=O)OC(CCCCCC)CCCCCC [compound 157],0.81%

# Same assay, conditions: Fluc mRNA-LNP, tail vein IV, BALB/c mice, 6 hours; relative to Compound 118
row,Structure (SMILES),Multiple of spleen delivery/total delivery (Spleen/Total Flux) to Compound 118
1,CCCCCCC(CCCCCC)OC(=O)CCCCCCCCC(CCCCCCCCC(=O)OC(CCCCCC)CCCCCC)N(CCCN(C)C)C(=O)CCCOCCCC [compound 129],33.05
2,CCCCCCCOCCCC(=O)N(CCCN(C)C)C(CCCCCCCCC(=O)OC(CCCCCC)CCCCCC)CCCCCCCCC(=O)OC(CCCCCC)CCCCCC [compound 132],19.82
3,CCCCCCC(CCCCCC)OC(=O)CCCCCCCCC(CCCCCCCCC(=O)OC(CCCCCC)CCCCCC)N(CCN(C)C)C(=O)COCCCCC [compound 145],0.75
4,CCCCCCOCC(=O)N(CCN(C)C)C(CCCCCCCCC(=O)OC(CCCCCC)CCCCCC)CCCCCCCCC(=O)OC(CCCCCC)CCCCCC [compound 146],0.43
5,CCCCCCCOCC(=O)N(CCN(C)C)C(CCCCCCCCC(=O)OC(CCCCCC)CCCCCC)CCCCCCCCC(=O)OC(CCCCCC)CCCCCC [compound 147],1.99
6,CCCCCCCCOCC(=O)N(CCN(C)C)C(CCCCCCCCC(=O)OC(CCCCCC)CCCCCC)CCCCCCCCC(=O)OC(CCCCCC)CCCCCC [compound 148],2.11
7,CCCCCCC(CCCCCC)OC(=O)CCCCCCCCC(CCCCCCCCC(=O)OC(CCCCCC)CCCCCC)N(CCN(C)C)C(=O)CCOCCCC [compound 149],1.95
8,CCCCCCC(CCCCCC)OC(=O)CCCCCCCCC(CCCCCCCCC(=O)OC(CCCCCC)CCCCCC)N(CCN(C)C)C(=O)CCOCCCCC [compound 150],0.97
9,CCCCCCOCCC(=O)N(CCN(C)C)C(CCCCCCCCC(=O)OC(CCCCCC)CCCCCC)CCCCCCCCC(=O)OC(CCCCCC)CCCCCC [compound 151],0.50
10,CCCCCCOCCCC(=O)N(CCN(C)C)C(CCCCCCCCC(=O)OC(CCCCCC)CCCCCC)CCCCCCCCC(=O)OC(CCCCCC)CCCCCC [compound 156],0.67
11,CCCCCCCOCCCC(=O)N(CCN(C)C)C(CCCCCCCCC(=O)OC(CCCCCC)CCCCCC)CCCCCCCCC(=O)OC(CCCCCC)CCCCCC [compound 157],0.71
